Key:
[1] = test system: cats diagnosed with hyperthyroidism; test: Serum total T4 in hyperthyroid cats, six-week study (Example 1); assay type: in vivo, cat
Procedure: (§1) A group of five cats diagnosed with hyperthyroidism was fed food B for six weeks. Another five cats diagnosed with hyperthyroidism were given 2.5 mg methimazole orally once a day for six weeks while they were fed food B. Eight cats diagnosed with hyperthyroidism were given 2.5 mg methimazole orally once a day for six weeks while they were fed a commercially available cat food. The thyroid hormone profiles and serum chemistries of all cats were measured at zero, two, four, and six weeks.

[2] = Serum creatinine in hyperthyroid cats, six-week study (Example 1); assay type: in vivo, cat
Procedure: as §1, with “Food B1 and food B2 were mixed in a 1:1 ratio, thus resulting in food B. A group” for “A group”

[3] = cats diagnosed with hyperthyroidism, six weeks, methimazole 2.5 mg orally once a day where given

Cn1cc[nH]c1=S [Methimazole, methimazole]
total T4 concentration relative to the normal total T4 concentration range ([1]; after six weeks): did not reach the normal total T4 concentration range
Change in Serum Total T4 Levels [1, 3]: -20.3 nmol/L
serum creatinine concentration relative to the normal creatinine concentration range ([2]; after six weeks, normal range 0.8-1.8 mg/dL): a bit higher than the 0.8-1.8 mg/dL normal creatinine concentration range
Change in Serum Creatinine Levels [2, 3]: +0.46 mg/dL

— patent US8993001B2, “Methods and compositions for treating feline hyperthyroidism” (Hill's Pet Nutrition, Inc., priority 2006, dated 2015)
